The values below come from ChEMBL document CHEMBL1139487, “Discovery of corticotropin releasing factor 2 receptor selective sauvagine analogues for treatment of skeletal muscle atrophy” (J Med Chem, 2005).

Assay [1] addresses T1, Corticotropin-releasing factor receptor 1 (Mus musculus, UniProt P35347).
T1 sequence (P35347 whole entry): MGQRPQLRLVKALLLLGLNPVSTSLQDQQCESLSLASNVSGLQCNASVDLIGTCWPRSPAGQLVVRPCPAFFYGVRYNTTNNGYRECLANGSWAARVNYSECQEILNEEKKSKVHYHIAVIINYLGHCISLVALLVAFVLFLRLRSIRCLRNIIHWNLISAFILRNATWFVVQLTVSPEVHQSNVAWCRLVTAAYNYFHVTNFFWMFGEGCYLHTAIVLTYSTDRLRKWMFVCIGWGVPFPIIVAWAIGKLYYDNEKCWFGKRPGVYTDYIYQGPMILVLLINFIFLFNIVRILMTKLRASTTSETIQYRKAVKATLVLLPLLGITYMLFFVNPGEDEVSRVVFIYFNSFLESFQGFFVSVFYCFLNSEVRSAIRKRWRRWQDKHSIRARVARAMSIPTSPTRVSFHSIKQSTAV
The experiment in a line: In vitro effective concentration for mouse corticotropin releasing factor 1 receptor.

Assay [2] has as its target Corticotropin-releasing factor receptor 2 (Mus musculus, UniProt Q60748). The experiment in a line: In vitro effective concentration for mouse corticotropin releasing factor 2 receptor.
The target of assay [3] is T2, Corticotropin-releasing factor receptor 1 (Mus musculus) (UniProt P35347).
T2 sequence (whole entry): T1 sequence (P35347 whole entry)
The experiment in a line: In vitro agonistic activity against mouse corticotropin releasing factor 1 receptor. The class given is functional.

Assay [4] deals with Corticotropin-releasing factor receptor 2 (Mus musculus) (UniProt Q60748). Briefly: In vitro agonistic activity against mouse corticotropin releasing factor 2 receptor. Type of assay: functional.
The species entered for a further assay is Mus musculus. Briefly: Selectivity ratio of EC50s for mouse corticotropin releasing factor receptors 1 and 2.

What is called pEC50 is the negative decadic logarithm of the EC50, by convention in mol/L. Usually Emax stands for the maximal effect, on the per cent scale that the assay sets.

Structures are written as SMILES. pEC50: −log10 of the molar value.

Sequence of Corticotropin-releasing factor receptor 2 (Q60748 whole entry): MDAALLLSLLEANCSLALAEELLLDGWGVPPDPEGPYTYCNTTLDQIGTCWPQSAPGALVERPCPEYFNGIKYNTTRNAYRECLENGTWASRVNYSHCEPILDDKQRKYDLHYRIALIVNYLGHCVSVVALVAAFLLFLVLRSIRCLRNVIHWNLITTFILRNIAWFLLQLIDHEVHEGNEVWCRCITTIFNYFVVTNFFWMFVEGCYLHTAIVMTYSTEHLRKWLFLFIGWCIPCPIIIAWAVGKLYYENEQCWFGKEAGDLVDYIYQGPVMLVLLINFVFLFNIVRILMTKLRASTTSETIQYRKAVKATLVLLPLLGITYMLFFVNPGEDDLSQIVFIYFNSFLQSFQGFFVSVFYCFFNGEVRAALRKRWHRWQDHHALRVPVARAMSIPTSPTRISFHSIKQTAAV
Sequence of Corticotropin-releasing factor receptor 2 (Mus musculus) (Q60748 whole entry): as above

For the compound `CC[C@H](C)[C@H](NC(=O)[C@@H](NC(=O)[C@H](CC(=O)O)NC(=O)[C@H](CC(C)C)NC(=O)[C@H](CC(C)C)NC(=O)[C@H](CC(C)C)NC(=O)[C@H](CCCN=C(N)N)NC(=O)[C@H](CC(N)=O)NC(=O)[C@H](CC(N)=O)NC(=O)[C@H](C)NC(=O)[C@H](C)NC(=O)[C@H](CCC(N)=O)NC(=O)[C@H](CCC(N)=O)NC(=O)[C@H](CCCCN)NC(=O)[C@H](CCC(=O)O)NC(=O)[C@H](CCCCN)NC(=O)[C@H](CCC(=O)O)NC(=O)[C@H](CCC(N)=O)NC(=O)[C@H](CCCCN)NC(=O)[C@H](CCC(=O)O)NC(=O)[C@@H](NC(=O)[C@H](CCC(=O)O)NC(=O)[C@@H](NC(=O)[C@H](CCSC)NC(=O)[C@H](CCCCN)NC(=O)[C@H](CCCN=C(N)N)NC(=O)[C@H](CC(C)C)NC(=O)[C@H](CC(C)C)NC(=O)[C@@H](NC(=O)[C@H](CC(C)C)NC(=O)[C@@H]1CCCN1C(=O)[C@H](CC(C)C)NC(=O)[C@H](CC(=O)O)NC(=O)[C@@H](NC(=O)[C@H](CO)NC(=O)[C@@H](NC(=O)[C@@H]1CCCN1C(=O)[C@@H]1CCCN1C(=O)CNC(=O)[C@@H]1CCC(=O)N1)[C@@H](C)CC)[C@@H](C)CC)[C@@H](C)CC)[C@@H](C)CC)[C@@H](C)CC)[C@@H](C)O)C(=O)O`, the figures for the pEC50 in assay [1] and in assay [2] were 6.97 and 8.30, respectively. In addition, the Emax was found to be 94% in assay [3] and 96% in assay [4]. Moreover, the Selectivity in the assay listed under Mus musculus worked out at 21.
Consider `CC[C@H](C)[C@H](NC(=O)[C@@H](NC(=O)[C@H](CC(=O)O)NC(=O)[C@H](CC(C)C)NC(=O)[C@H](CC(C)C)NC(=O)[C@H](CC(C)C)NC(=O)[C@H](CCCN=C(N)N)NC(=O)[C@H](CC(N)=O)NC(=O)[C@H](CC(N)=O)NC(=O)[C@H](C)NC(=O)[C@H](C)NC(=O)[C@H](CCC(N)=O)NC(=O)[C@H](CCC(N)=O)NC(=O)[C@H](CCCCN)NC(=O)[C@H](CCC(=O)O)NC(=O)[C@H](CCCCN)NC(=O)[C@H](CCC(=O)O)NC(=O)[C@H](CCC(N)=O)NC(=O)[C@H](CCCCN)NC(=O)[C@H](CCC(=O)O)NC(=O)[C@@H](NC(=O)[C@H](CCC(=O)O)NC(=O)[C@@H](NC(=O)[C@H](CCSC)NC(=O)[C@H](CCCCN)NC(=O)[C@H](CCCN=C(N)N)NC(=O)[C@H](CC(C)C)NC(=O)[C@H](CC(C)C)NC(=O)[C@H](Cc1c[nH]c2ccccc12)NC(=O)[C@H](CCC(N)=O)NC(=O)[C@@H]1CCCN1C(=O)[C@H](CC(C)C)NC(=O)[C@H](CC(=O)O)NC(=O)[C@@H](NC(=O)[C@H](CO)NC(=O)[C@@H](NC(=O)[C@@H]1CCCN1C(=O)[C@@H]1CCCN1C(=O)CNC(=O)[C@@H]1CCC(=O)N1)[C@@H](C)CC)[C@@H](C)CC)[C@@H](C)CC)[C@@H](C)CC)[C@@H](C)O)C(=O)O`, for which the pEC50 in assay [1] is below 6.00; in assay [2], 7.66. The maximal response (Emax) in assay [3] stood at 78%; in assay [4], 99%. Also, the Selectivity in the assay listed under Mus musculus is above 46.
For `CC[C@H](C)[C@H](NC(=O)[C@@H](NC(=O)[C@H](CC(=O)O)NC(=O)[C@H](CC(C)C)NC(=O)[C@H](CC(C)C)NC(=O)[C@H](CC(C)C)NC(=O)[C@H](CCCN=C(N)N)NC(=O)[C@H](CC(N)=O)NC(=O)[C@H](CC(N)=O)NC(=O)[C@H](C)NC(=O)[C@H](C)NC(=O)[C@H](CCC(N)=O)NC(=O)[C@H](CCC(N)=O)NC(=O)[C@H](CCCCN)NC(=O)[C@H](CCC(=O)O)NC(=O)[C@H](CCCCN)NC(=O)[C@H](CCC(=O)O)NC(=O)[C@H](CCC(N)=O)NC(=O)[C@H](CCCCN)NC(=O)[C@H](CCC(=O)O)NC(=O)[C@@H](NC(=O)[C@H](CCC(=O)O)NC(=O)[C@@H](NC(=O)[C@H](CCSC)NC(=O)[C@H](CCCCN)NC(=O)[C@H](CCCN=C(N)N)NC(=O)[C@H](CC(C)C)NC(=O)[C@H](CC(C)C)NC(=O)[C@H](CCC(N)=O)NC(=O)[C@H](Cc1c[nH]cn1)NC(=O)[C@@H]1CCCN1C(=O)[C@H](CC(C)C)NC(=O)[C@H](CC(=O)O)NC(=O)[C@@H](NC(=O)[C@H](CO)NC(=O)[C@@H](NC(=O)[C@@H]1CCCN1C(=O)[C@@H]1CCCN1C(=O)CNC(=O)[C@@H]1CCC(=O)N1)[C@@H](C)CC)[C@@H](C)CC)[C@@H](C)CC)[C@@H](C)CC)[C@@H](C)O)C(=O)O` the same measures were 6.35, 7.67, 100%, 100% and 21.
In the case of `CC[C@H](C)[C@H](NC(=O)[C@@H](NC(=O)[C@H](CC(=O)O)NC(=O)[C@H](CC(C)C)NC(=O)[C@H](CC(C)C)NC(=O)[C@H](CC(C)C)NC(=O)[C@H](CCCN=C(N)N)NC(=O)[C@H](CC(N)=O)NC(=O)[C@H](CC(N)=O)NC(=O)[C@H](C)NC(=O)[C@H](C)NC(=O)[C@H](CCC(N)=O)NC(=O)[C@H](CCC(N)=O)NC(=O)[C@H](CCCCN)NC(=O)[C@H](CCC(=O)O)NC(=O)[C@H](CCCCN)NC(=O)[C@H](CCC(=O)O)NC(=O)[C@H](CCC(N)=O)NC(=O)[C@H](CCCCN)NC(=O)[C@H](CCC(=O)O)NC(=O)[C@@H](NC(=O)[C@H](CCC(=O)O)NC(=O)[C@@H](NC(=O)[C@H](CCSC)NC(=O)[C@H](CCCCN)NC(=O)[C@H](CCCN=C(N)N)NC(=O)[C@H](CC(C)C)NC(=O)[C@H](CC(C)C)NC(=O)[C@H](Cc1ccc(O)cc1)NC(=O)[C@H](CC(N)=O)NC(=O)[C@@H]1CCCN1C(=O)[C@H](CC(C)C)NC(=O)[C@H](CC(=O)O)NC(=O)[C@@H](NC(=O)[C@H](CO)NC(=O)[C@@H](NC(=O)[C@@H]1CCCN1C(=O)[C@@H]1CCCN1C(=O)CNC(=O)[C@@H]1CCC(=O)N1)[C@@H](C)CC)[C@@H](C)CC)[C@@H](C)CC)[C@@H](C)CC)[C@@H](C)O)C(=O)O`, the pEC50 in assay [1] was 6.66; in assay [2] it was 7.67. Moreover, the results for the Emax in assay [3] and in assay [4] were 100% and 93%, respectively. For the same compound, in the assay listed under Mus musculus, the Selectivity was 10.
For `CC[C@H](C)[C@H](NC(=O)[C@@H](NC(=O)[C@H](CC(=O)O)NC(=O)[C@H](CC(C)C)NC(=O)[C@H](CC(C)C)NC(=O)[C@H](CC(C)C)NC(=O)[C@H](CCCN=C(N)N)NC(=O)[C@H](CC(N)=O)NC(=O)[C@H](CC(N)=O)NC(=O)[C@H](C)NC(=O)[C@H](C)NC(=O)[C@H](CCC(N)=O)NC(=O)[C@H](CCC(N)=O)NC(=O)[C@H](CCCCN)NC(=O)[C@H](CCC(=O)O)NC(=O)[C@H](CCCCN)NC(=O)[C@H](CCC(=O)O)NC(=O)[C@H](CCC(N)=O)NC(=O)[C@H](CCCCN)NC(=O)[C@H](CCC(=O)O)NC(=O)[C@@H](NC(=O)[C@H](CCC(=O)O)NC(=O)[C@@H](NC(=O)[C@H](CCSC)NC(=O)[C@H](CCCCN)NC(=O)[C@H](CCCN=C(N)N)NC(=O)[C@H](CC(C)C)NC(=O)[C@H](CC(C)C)NC(=O)[C@H](Cc1c[nH]c2ccccc12)NC(=O)[C@H](Cc1c[nH]cn1)NC(=O)[C@@H]1CCCN1C(=O)[C@H](CC(C)C)NC(=O)[C@H](CC(=O)O)NC(=O)[C@@H](NC(=O)[C@H](CO)NC(=O)[C@@H](NC(=O)[C@@H]1CCCN1C(=O)[C@@H]1CCCN1C(=O)CNC(=O)[C@@H]1CCC(=O)N1)[C@@H](C)CC)[C@@H](C)CC)[C@@H](C)CC)[C@@H](C)CC)[C@@H](C)O)C(=O)O` the same measures were 6.39, 7.60, 100%, 100% and 16.
